Consider 6 compounds from ChEMBL document CHEMBL1146947, “Synthesis and ocular effects of imidazole nitrolic acid and amidoxime esters” (Bioorg Med Chem Lett, 2006).

The target of assay [1] is T1, Soluble guanylate cyclase (Homo sapiens) (UniProt Q02153+O75343+P33402+Q02108). Briefly: Effect on cGMP production in porcine iris-ciliary body at 10 uM. Type of assay: functional. Particulars: Sus scrofa, target entry is the homologue from another species.
Assay [2] concerns the target T1, Soluble guanylate cyclase (Homo sapiens). Briefly: Effect on cGMP production in porcine iris-ciliary body at 100 uM. The format is functional. Particulars: Sus scrofa, target entry is the homologue from another species.
In assay [3] the test system is Oryctolagus cuniculus. Briefly: Lowering of intraocular pressure in rabbit eye at 10 mM administered topically. The format is functional, organism-based.
The species named for assay [4] is Oryctolagus cuniculus. Briefly: Lowering of intraocular pressure in rabbit eye intravitreally injected with 10 mM. The format is functional, organism-based.

Molecules are shown by their SMILES. The source made the active and inactive calls. The rule behind the calls is not given here.

Take `CCCC(=O)ONC(=N)c1cncn1C`: the Activity in assay [1] came out at 0.23 pmol/mg; in assay [2] it was 0.24 pmol/mg. Besides, the result in the assay on Oryctolagus cuniculus [3] was inactive.

Take `CC(=O)ONC(=N)c1cncn1C`: the outcome in the assay listed under Oryctolagus cuniculus [4] and in the assay on Oryctolagus cuniculus [3] was inactive.

`Cn1cncc1C(=N)NOC(=O)C(C)(C)C`: the Activity in assay [1] turned out to be 0.63 pmol/mg; in assay [2] it was 0.24 pmol/mg. Further, in the assay on Oryctolagus cuniculus [3], the outcome was inactive.

As for `CC(=O)O/N=C(/c1c[nH]cn1)[N+](=O)[O-]`, the Activity in assay [1] was 0.45 pmol/mg; in assay [2] it was 0.78 pmol/mg. Also, in the assay with Oryctolagus cuniculus [3], the result was inactive.

With `CCCC(=O)O/N=C(/c1c[nH]cn1)[N+](=O)[O-]`, the Activity in assay [1] was 0.5 pmol/mg; in assay [2] it was 0.38 pmol/mg. Also, in the assay with Oryctolagus cuniculus [3], the result was inactive.

Consider `CC(C)(C)C(=O)O/N=C(/c1c[nH]cn1)[N+](=O)[O-]`, for which the Activity in assay [1] is 0.36 pmol/mg; in assay [2], 0.73 pmol/mg. Moreover, in the assay with Oryctolagus cuniculus [3], the result was inactive.
